Test results: US20260347361A1, “LRRK2 INHIBITORS AND USES THEREOF” (NEURON23, INC, priority 2022, published 2026)

Target: T1, wt human LRRK2 (Homo sapiens, UniProt Q5S007)
T1 construct: wt human LRRK2, catalytic site, catalytic site (ThermoFisher/USA); purchased ThermoFisher
Assay: TR-FRET LanthaScreen Tb Kinase Activity Assay, inhibition of LRRK2 kinase
Assay type: biochemical
Conditions: 2 nM wt human LRRK2, 400 nM fluorescein-ERM (LRRKtide) peptide, 38 µM ATP, 15 min pre-incubation, 120 min at room temperature
Method: In Table 2, activity is provided as the following: “+++”=IC50 less than 50 nM; “++”=IC50 between 50 nM and 200 nM; “+”=IC50> or =200 nM.
The compounds listed in Table 2 were tested for their inhibitory effect on LRRK2 kinase according to the following procedures.
The protocol for basic TR-FRET LanthaScreen Tb Kinase Activity Assay inhibitor studies were as follows. LanthaScreen Kinase Activity Assays (ThermoFisher/USA) to evaluate inhibitors were performed by addition of 100 nl of test compound in corresponding DMSO dilutions/5 μl of kinase/fluorescein-ERM(LRRKtide) peptide mixture, Compound & kinase were pre-incubated for 15 minutes, then 5 μl of ATP into 384 well small volume plates. After incubation for 120 minutes at room temperature, the detection reagents containing Tb-anti-pLRRKtide antibody were added to monitor phosphorylation level of peptide. Then, after 60 min minutes incubation at room temperature plates were read in Envision. Data analysis of emission ratios was according to LanthaScreen Tb Kinase Activity Assay protocol.
Kinase and assay components were adjusted to final concentrations according to the kit protocol. For LRRK2: 2 nM wt human LRRK2, catalytic site, catalytic site (ThermoFisher/USA), 400 nM peptide, 38 µM ATP in 1× Kinase Buffer A.
Basic protocol for TR-FRET LanthaScreen Tb Kinase Activity Assay inhibitor studies involved two steps:
Enzymatic step: Addition of […] of test compound in corresponding DMSO dilutions, 5 μL of kinase/substrate mixture, 5 μL of ATP into 384 well small volume plates. Incubation for 120 minutes at room temperature.
Detection step: Addition of 10 μL EDTA & antibody, read plate after 60 minutes. Data analysis of emission ratios according to KinEASE assay protocol.
Kinase and assay components were adjusted to final concentrations according to the kit protocol.

T1 sequence (Q5S007 970-2527 limits assumed): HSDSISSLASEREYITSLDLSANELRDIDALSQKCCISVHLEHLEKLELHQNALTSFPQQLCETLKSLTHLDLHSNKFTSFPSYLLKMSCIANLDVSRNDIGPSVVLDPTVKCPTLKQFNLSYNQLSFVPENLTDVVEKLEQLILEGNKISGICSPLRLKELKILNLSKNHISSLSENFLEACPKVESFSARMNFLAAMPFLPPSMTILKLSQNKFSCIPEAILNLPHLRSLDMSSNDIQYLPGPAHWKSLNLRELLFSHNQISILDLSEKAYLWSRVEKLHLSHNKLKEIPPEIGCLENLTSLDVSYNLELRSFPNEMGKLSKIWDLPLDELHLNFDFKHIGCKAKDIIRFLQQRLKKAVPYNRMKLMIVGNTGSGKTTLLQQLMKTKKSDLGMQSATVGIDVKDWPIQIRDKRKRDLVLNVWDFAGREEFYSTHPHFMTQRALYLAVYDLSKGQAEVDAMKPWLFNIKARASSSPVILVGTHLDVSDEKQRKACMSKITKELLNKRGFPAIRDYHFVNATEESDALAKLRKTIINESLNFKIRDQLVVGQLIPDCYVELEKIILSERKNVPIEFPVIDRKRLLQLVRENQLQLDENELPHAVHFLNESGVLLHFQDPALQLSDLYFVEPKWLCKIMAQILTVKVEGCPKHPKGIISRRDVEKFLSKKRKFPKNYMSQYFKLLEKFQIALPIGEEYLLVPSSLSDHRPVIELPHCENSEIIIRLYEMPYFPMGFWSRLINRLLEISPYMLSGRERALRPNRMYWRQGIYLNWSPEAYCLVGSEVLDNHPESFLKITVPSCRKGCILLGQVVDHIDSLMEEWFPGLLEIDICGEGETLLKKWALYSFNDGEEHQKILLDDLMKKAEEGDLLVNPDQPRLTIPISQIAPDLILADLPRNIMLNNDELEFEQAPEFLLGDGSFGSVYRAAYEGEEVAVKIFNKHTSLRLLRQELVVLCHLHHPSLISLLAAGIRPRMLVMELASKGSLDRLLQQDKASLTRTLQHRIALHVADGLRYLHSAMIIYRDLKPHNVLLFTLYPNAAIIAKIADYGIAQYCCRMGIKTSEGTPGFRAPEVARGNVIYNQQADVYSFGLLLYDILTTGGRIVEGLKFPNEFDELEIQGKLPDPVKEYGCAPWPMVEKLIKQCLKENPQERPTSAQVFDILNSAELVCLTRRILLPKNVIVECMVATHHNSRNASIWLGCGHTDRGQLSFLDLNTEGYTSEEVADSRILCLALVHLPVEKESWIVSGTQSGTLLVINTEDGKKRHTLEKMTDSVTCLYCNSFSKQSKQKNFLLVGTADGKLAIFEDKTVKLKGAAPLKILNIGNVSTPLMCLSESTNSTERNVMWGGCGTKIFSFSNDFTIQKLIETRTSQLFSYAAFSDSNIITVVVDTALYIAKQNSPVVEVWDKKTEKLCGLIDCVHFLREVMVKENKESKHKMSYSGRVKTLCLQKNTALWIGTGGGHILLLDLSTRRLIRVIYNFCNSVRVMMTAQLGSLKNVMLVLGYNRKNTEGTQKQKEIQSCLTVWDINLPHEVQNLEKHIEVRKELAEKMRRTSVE

Structure (SMILES)	IC50 [µM]
COCCNC(=O)c1ccc2c(c1)-n1ncc(Cl)c1N=C(c1c(F)cccc1F)N2 [3-chloro-5-(2,6-difluorophenyl)-N-(2-methoxyethyl)-6H-pyrazolo[1,5-a][1,3,5]benzotriazepine-9-carboxamide]	< 0.05
O=C(NCCF)c1ccc2c(c1)-n1ncc(Cl)c1N=C(c1c(F)cccc1F)N2 [3-chloro-5-(2,6-difluorophenyl)-N-(2-fluoroethyl)-6H-pyrazolo[1,5-a][1,3,5]benzotriazepine-9-carboxamide]	< 0.05
Fc1cccc(F)c1C1=Nc2c(Cl)cnn2-c2cc(N3C[C@H]4C[C@@H]3CO4)ncc2N1 [(1R,4R)-5-[5-chloro-8-(2,6-difluorophenyl)-2,3,7,9,12-pentazatricyclo[8.4.0.02,6]tetradeca-1(10),3,5,7,11,13-hexaen-13-yl]-2-oxa-5-azabicyclo[2.2.1]heptane]	< 0.05
CNC(=O)c1ccc2c(c1)-n1ncc(Cl)c1N=C(c1c(F)cccc1F)N2 [3-chloro-5-(2,6-difluorophenyl)-N-methyl-6H-pyrazolo[1,5-a][1,3,5]benzotriazepine-9-carboxamide]	< 0.05
CONC(=O)c1ccc2c(c1)-n1ncc(Cl)c1N=C(c1c(F)cccc1F)N2 [3-chloro-5-(2,6-difluorophenyl)-N-methoxy-6H-pyrazolo[1,5-a][1,3,5]benzotriazepine-9-carboxamide]	< 0.05
Fc1cccc(F)c1C1=Nc2c(Cl)cnn2-c2cc(N3CC4CC3CO4)ccc2N1 (racemic) [5-(3-chloro-5-(2,6-difluorophenyl)-6H-benzo[f]pyrazolo[1,5-a][1,3,5]triazepin-9-yl)-2-oxa-5-azabicyclo[2.2.1]heptane]	< 0.05
COC(=O)c1ccc2c(c1)-n1ncc(Cl)c1N=C(c1c(F)cccc1F)N2 [Methyl 3-chloro-5-(2,6-difluorophenyl)-6H-pyrazolo[1,5-a][1,3,5]benzotriazepine-9-carboxylate]	< 0.05
Fc1cccc(F)c1C1=Nc2ccnn2-c2cc(N3CCOCC3)ccc2N1 [4-[5-(2,6-difluorophenyl)-6H-pyrazolo[1,5-a][1,3,5]benzotriazepin-9-yl]morpholine]	< 0.05
CN(C)C(=O)c1ccc2c(c1)-n1ncc(Cl)c1N=C(c1c(F)cccc1F)N2 [3-chloro-5-(2,6-difluorophenyl)-N,N-dimethyl-6H-pyrazolo[1,5-a][1,3,5]benzotriazepine-9-carboxamide]	0.05 to 0.2
Fc1cccc(F)c1C1=Nc2c(Cl)cnn2-c2cc(Br)ccc2N1 [9-bromo-3-chloro-5-(2,6-difluorophenyl)-6H-pyrazolo[1,5-a][1,3,5]benzotriazepine]	< 0.05
O=C(NCCF)c1cnc2c(c1)-n1ncc(Cl)c1N=C(c1c(F)cccc1F)N2 [5-chloro-8-(2,6-difluorophenyl)-N-(2-fluoroethyl)-2,3,7,9,11-pentazatricyclo[8.4.0.02,6]tetradeca-1(10),3,5,7,11,13-hexaene-13-carboxamide]	< 0.05
Fc1cccc(F)c1C1=Nc2c(Cl)cnn2-c2cc(N3C4CCC3COC4)ccc2N1 [8-[3-chloro-5-(2,6-difluorophenyl)-6H-pyrazolo [1,5-a][1,3, 5]benzotriazepin-9-yl]-3-oxa-8-azabicyclo [3.2.1]octane]	< 0.05
Fc1cccc(F)c1C1=Nc2c(Cl)cnn2-c2cc(N3CCCOCC3)ccc2N1 [4-[3-chloro-5-(2,6-difluorophenyl)-6H-pyrazolo[1,5-a][1,3,5]benzotriazepin-9-yl]-1,4-oxazepane]	< 0.05
Fc1cccc(Cl)c1C1=Nc2c(Cl)cnn2-c2cc(N3CCOCC3)ncc2N1 [4-(3-chloro-5-(2-chloro-6-fluorophenyl)-6H-pyrazolo[1,5-a]pyrido[3,4-f][1,3,5]triazepin-9-yl)morpholine]	< 0.05
Fc1cccc(F)c1C1=Nc2c(Cl)cnn2-c2cc(N3CCCC3)ccc2N1 [3-chloro-5-(2,6-difluorophenyl)-9-(pyrrolidin-1-yl)-6H-benzo[f]pyrazolo[1,5-a][1,3,5]triazepine]	< 0.05
CC1CN(c2ccc3c(c2)-n2ncc(Cl)c2N=C(c2c(F)cccc2F)N3)CC(C)O1 (stereo not shown) [4-[3-chloro-5-(2,6-difluorophenyl)-6H-pyrazolo[1,5-a][1,3,5]benzotriazepin-9-yl]-2,6-dimethyl-morpholine]	< 0.05
O=S1(=O)CCN(c2ccc3c(c2)-n2ncc(Cl)c2N=C(c2c(F)cccc2F)N3)CC1	< 0.05

Structure (SMILES)	IC50 [µM]
C[C@@H]1CN(c2ccc3c(c2)-n2ncc(Cl)c2N=C(c2c(F)cccc2F)N3)C[C@@H](C)O1 [(2R,6R)-4-(3-chloro-5-(2,6-difluorophenyl)-6H-benzo[f]pyrazolo[1,5-a][1,3,5]triazepin-9-yl)-2,6-dimethylmorpholine]	< 0.05
Cc1cnn2c1N=C(c1c(F)cccc1F)Nc1cnc(N3CCOCC3)cc1-2 [4-(5-(2,6-difluorophenyl)-3-methyl-6H-pyrazolo[1,5-a]pyrido[3,4-f][1,3,5]triazepin-9-yl)morpholine]	< 0.05
Fc1cccc(F)c1C1=Nc2c(Cl)cnn2-c2cc(N3C[C@@H]4C[C@H]3CO4)ccc2N1 [(1S,4S)-5-[3-chloro-5-(2,6-difluorophenyl)-6H-pyrazolo[1,5-a][1,3,5]benzotriazepin-9-yl]-2-oxa-5-azabicyclo[2.2.1]heptane]	< 0.05
Cn1cc(-c2ccc3c(c2)-n2ncc(Cl)c2N=C(c2c(F)cccc2F)N3)cn1 [3-chloro-5-(2,6-difluorophenyl)-9-(1-methylpyrazol-4-yl)-6H-pyrazolo[1,5-a][1,3,5]benzotriazepine]	< 0.05
Fc1cccc(F)c1C1=Nc2c(Cl)cnn2-c2cc(N3C[C@H]4CC[C@@H](C3)O4)ccc2N1 [(1R,5S)-3-[3-chloro-5-(2,6-difluorophenyl)-6H-pyrazolo[1,5-a][1,3,5]benzotriazepin-9-yl]-8-oxa-3-azabicyclo[3.2.1]octane]	< 0.05
Fc1cccc(F)c1C1=Nc2c(Cl)cnn2-c2cc(N3C[C@H]4CC[C@@H]3CO4)ccc2N1 [(1R,4R)-5-[3-chloro-5-(2,6-difluorophenyl)-6H-pyrazolo[1,5-a][1,3,5]benzotriazepin-9-yl]-2-oxa-5-azabicyclo[2.2.2]octane]	< 0.05
CC(C)NC(=O)c1ccc2c(c1)-n1ncc(Cl)c1N=C(c1c(F)cccc1F)N2 [3-chloro-5-(2,6-difluorophenyl)-N-isopropyl-6H-pyrazolo[1,5-a][1,3,5]benzotriazepine-9-carboxamide]	< 0.05
C[C@H]1CN(c2cc3c(cn2)NC(c2c(F)cccc2F)=Nc2ccnn2-3)CCO1 [(S)-4-(5-(2,6-difluorophenyl)-6H-pyrazolo[1,5-a]pyrido[3,4-f][1,3,5]triazepin-9-yl)-2-methylmorpholine]	< 0.05
Fc1cccc(F)c1C1=Nc2c(Cl)cnn2-c2cc(N3CCC4(CC3)COC4)ccc2N1 [7-[3-chloro-5-(2,6-difluorophenyl)-6H-pyrazolo[1,5-a][1,3,5]benzotriazepin-9-yl]-2-oxa-7-azaspiro[3.5]nonane]	< 0.05
Fc1cccc(F)c1C1=Nc2c(Br)cnn2-c2cc(N3CCOCC3)ncc2N1 [4-(3-bromo-5-(2,6-difluorophenyl)-6H-pyrazolo[1,5-a]pyrido[3,4-f][1,3,5]triazepin-9-yl)morpholine]	< 0.05
Fc1cccc(F)c1C1=Nc2c(Cl)cnn2-c2cc(N3CCOCC3)cnc2N1	< 0.05
CC(C)(O)c1ccc2c(c1)-n1ncc(Cl)c1N=C(c1c(F)cccc1F)N2 [Methyl 2-[3-chloro-5-(2,6-difluorophenyl)-6H-pyrazolo[1,5-a][1,3,5]benzotriazepin-9-yl]propan-2-ol]	0.05 to 0.2
Fc1cccc(F)c1C1=Nc2c(Cl)cnn2-c2cc(N3CC[C@@H](F)C3)ccc2N1 [3-chloro-5-(2,6-difluorophenyl)-9-[(3R)-3-fluoropyrrolidin-1-yl]-6H-pyrazolo[1,5-a][1,3,5]benzotriazepine]	< 0.05
C[C@H]1CN(c2cc3c(cn2)NC(c2c(F)cccc2F)=Nc2c(F)cnn2-3)C[C@H](C)O1 [(2S,6S)-4-(5-(2,6-difluorophenyl)-3-fluoro-6H-pyrazolo[1,5-a]pyrido[3,4-f][1,3,5]triazepin-9-yl)-2,6-dimethylmorpholine]	0.05 to 0.2
COC1CCN(c2ccc3c(c2)-n2ncc(Cl)c2N=C(c2c(F)cccc2F)N3)C1 (racemic) [3-chloro-5-(2,6-difluorophenyl)-9-(3-methoxypyrrolidin-1-yl)-6H-pyrazolo[1,5-a][1,3,5]benzotriazepine]	< 0.05
Fc1cccc(N2CCOCC2)c1C1=Nc2c(Cl)cnn2-c2cc(N3CCOCC3)ccc2N1 [4-[3-chloro-5-(2-fluoro-6-morpholino-phenyl)-6H-pyrazolo[1,5-a][1,3,5]benzotriazepin-9-yl]morpholine]	> 0.2
Fc1cccc(F)c1C1=Nc2c(Cl)cnn2-c2cc(N3CCC34COC4)ccc2N1 [1-[3-chloro-5-(2,6-difluorophenyl)-6H-pyrazolo[1,5-a][1,3,5]benzotriazepin-9-yl]-6-oxa-1-azaspiro[3.3]heptane]	< 0.05
